Columns and labels:
[1] = target: IDH1-R132H recombinant protein (Homo sapiens (Human), UniProt O75874, R132H); experiment: IDH1-R132H enzymatic assay (inhibition of NADPH consumption, diaphorase/resazurin readout); format: biochemical; conditions: read-out: Enzyme IDH1 R132H IC50 (Range)
Experimental: (§1) Assays were performed in a 384-well black plate. An aliquot of 250 nL of compound was incubated with 10 μL of 30 nM IDH1-R132H or 10 nM IDH1-R132C recombinant protein in assay buffer (50 mM Tris pH=7.5, 150 mM NaCl, 5 mM MgCl2, 0.1% (w/v) Bovine Serum Albumin, and 0.01% Triton X-100) in each well at 25° C. for 15 minutes. After the plate was centrifuged briefly, an aliquot of 10 μL of 2 mM α-ketoglutarate and 20 μM NADPH solution prepared in assay buffer was then added to each well and the reaction was maintained at 25° C. for 45 minutes. An aliquot of 10 μL of diaphorase solution (0.15 U/mL diaphorase and 30 µM Resazurin in assay buffer) was added to each well. The plate was maintained at 25° C. for 15 minutes and then read on a plate reader with excitation and emission wavelengths at 535 nm and 590 nm, respectively. The IC50 of a given compound was calculated by fitting the dose response curve of inhibition of NADPH consumption at a given concentration with the four parameter logistic equation.

[2] = target: IDH1-R132C recombinant protein (Homo sapiens (Human), UniProt O75874, R132C); experiment: IDH1-R132C enzymatic assay (inhibition of NADPH consumption, diaphorase/resazurin readout); format: biochemical; conditions: read-out: Enzyme IDH1 R132C IC50 (Range)
Experimental: as §1

Sequence of IDH1-R132H recombinant protein (O75874 whole entry R132H): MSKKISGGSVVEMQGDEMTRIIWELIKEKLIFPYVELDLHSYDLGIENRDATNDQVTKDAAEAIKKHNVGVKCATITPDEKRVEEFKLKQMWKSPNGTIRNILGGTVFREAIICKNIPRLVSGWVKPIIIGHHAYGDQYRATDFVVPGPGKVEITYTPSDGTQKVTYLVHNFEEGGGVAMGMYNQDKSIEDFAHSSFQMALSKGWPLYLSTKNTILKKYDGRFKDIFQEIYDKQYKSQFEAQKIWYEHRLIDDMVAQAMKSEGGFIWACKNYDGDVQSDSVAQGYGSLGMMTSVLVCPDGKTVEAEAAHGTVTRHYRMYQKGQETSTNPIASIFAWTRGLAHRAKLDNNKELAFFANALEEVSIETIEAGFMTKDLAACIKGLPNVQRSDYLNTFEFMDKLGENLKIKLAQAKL
Sequence of IDH1-R132C recombinant protein (O75874 whole entry R132C): as the sequence (O75874 whole entry R132H) above, with H132C counted along it

| Structure (SMILES) | IC50 [1] [nM] | IC50 [2] [nM] |
| --- | --- | --- |
| C[C@H](Nc1nccc(N(CC2CC2)S(C)(=O)=O)n1)c1cc2cc(Cl)ccc2[nH]c1=O [Compound I-2, (S)—N-(2-((1-(6-Chloro-2-oxo-1,2-dihydroquinolin-3-yl)ethyl)amino)pyrimidin-4-yl)-N-(cyclopropylmethyl)methanesulfonamide] | < 100 | < 100 |
| C[C@H](Nc1nccc(N(C2CCCOC2)S(C)(=O)=O)n1)c1cc2cc(Cl)ccc2[nH]c1=O (stereo partly drawn) [Compound I-3, N-(2-(((S)-1-(6-chloro-2-oxo-1,2-dihydroquinolin-3-yl)ethyl)amino)pyrimidin-4-yl)-N-(tetrahydro-2H-pyran-3-yl)methanesulfonamide] | 100 to 1000 | 100 to 1000 |
| CC(C)N(c1ccnc(N[C@@H](C)c2cc3cc(Cl)ccc3[nH]c2=O)n1)S(=O)(=O)c1cccnc1 [Compound I-4, (S)—N-(2-((1-(6-Chloro-2-oxo-1,2-dihydroquinolin-3-yl)ethyl)amino)pyrimidin-4-yl)-N-isopropylpyridine-3-sulfonamide] | < 100 | < 100 |
| CC(C)CS(=O)(=O)N(c1ccnc(N[C@@H](C)c2cc3cc(Cl)ccc3[nH]c2=O)n1)C(C)C [Compound I-5, (S)—N-(2-(1-(6-Chloro-2-oxo-1,2-dihydroquinolin-3-yl)ethylamino)pyrimidin-4-yl)-N-isopropyl-2-methylpropane-1-sulfonamide] | < 100 | 100 to 1000 |
| C[C@H](Nc1nccc(NC(C)(C)C)n1)c1cc2cc(Cl)ccc2[nH]c1=O [Compound I-7] | 100 to 1000 | 1000 to 10000 |
| CC(C)CN(c1ccnc(N[C@@H](C)c2cc3cc(Cl)ccc3[nH]c2=O)n1)S(C)(=O)=O [Compound I-8, (S)—N-(2-(1-(6-Chloro-2-oxo-1,2-dihydroquinolin-3-yl)ethylamino)pyrimidin-4-yl)-N-isobutylmethanesulfonamide] | < 100 | < 100 |
| CC(C)N(c1ccnc(N[C@@H](C)c2cc3cc(Cl)ccc3[nH]c2=O)n1)S(C)(=O)=O [Compound I-10, (S)—N-(2-(1-(6-Chloro-2-oxo-1,2-dihydroquinolin-3-yl)ethylamino)pyrimidin-4-yl)-N-isopropylmethanesulfonamide] | < 100 | 100 to 1000 |
| CC(C)N(c1ccnc(N[C@@H](C)c2cc3cc(Cl)ccc3[nH]c2=O)n1)S(=O)(=O)CC1CC1 [Compound I-11, (S)—N-(2-((1-(6-Chloro-2-oxo-1,2-dihydroquinolin-3-yl)ethyl)amino)pyrimidin-4-yl)-1-cyclopropyl-N-isopropylmethanesulfonamide] | < 100 | < 100 |
| C[C@H](Nc1nccc(N(C2CC2)S(C)(=O)=O)n1)c1cc2cc(Cl)ccc2[nH]c1=O [Compound I-14] | 100 to 1000 | 1000 to 10000 |
| CC(C)CS(=O)(=O)N(C)c1ccnc(N[C@@H](C)c2cc3cc(Cl)ccc3[nH]c2=O)n1 [Compound I-15] | 100 to 1000 | 100 to 1000 |
| C[C@H](Nc1nccc(N(CCC2CCOCC2)S(C)(=O)=O)n1)c1cc2cc(Cl)ccc2[nH]c1=O [Compound I-16] | 100 to 1000 | 1000 to 10000 |
| CC(C)N(c1ccnc(N[C@@H](C)c2cc3cc(Cl)ccc3[nH]c2=O)n1)S(=O)(=O)c1ccc2c(c1)oc(=O)n2C [Compound I-21] | 100 to 1000 | 1000 to 10000 |
| CC(C)CN(C(=O)C1CC1)c1ccnc(N[C@@H](C)c2cc3cc(Cl)ccc3[nH]c2=O)n1 [Compound I-35] | 100 to 1000 | 1000 to 10000 |
| COc1nc(N[C@@H](C)c2cc3cc(Cl)ccc3n(C)c2=O)ncc1C#N [Compound I-41, (S)-2-((1-(6-chloro-1-methyl-2-oxo-1,2-dihydroquinolin-3-yl)ethyl)amino)-4-methoxypyrimidine-5-carbonitrile] | 1000 to 10000 | 1000 to 10000 |
| C[C@@H](Nc1nccc(N2CCOC2=O)n1)c1cc2cc(Cl)ccc2[nH]c1=O [Compound I-45] | 1000 to 10000 | 1000 to 10000 |
| CC(C)[C@H]1COC(=O)N1c1ccnc(NCc2cc3cc(Cl)ccc3[nH]c2=O)n1 [Compound I-46, (S)-3-(2-(((6-Chloro-2-oxo-1,2-dihydroquinolin-3-yl)methyl)amino)pyrimidin-4-yl)-4-isopropyloxazolidin-2-one] | < 100 | < 100 |
| CC(Nc1nccc(N2CCOC2=O)n1)c1cc2cc(Cl)ccc2[nH]c1=O (stereo not shown) [Compound I-48] | < 100 | 100 to 1000 |
| Cc1nn(C)c(C)c1-c1ccnc(N[C@@H](C)c2cc3cc(Cl)ccc3[nH]c2=O)n1 [Compound I-84] | 1000 to 10000 | > 10000 |
| C[C@H](Nc1nccc(-c2c[nH]nc2C(F)(F)F)n1)c1cc2cc(Cl)ccc2[nH]c1=O [Compound I-86] | 1000 to 10000 | > 10000 |
| C[C@H](Nc1nccc(-c2coc3ccccc23)n1)c1cc2cc(Cl)ccc2[nH]c1=O [Compound I-89] | 1000 to 10000 | 1000 to 10000 |
| C[C@H](Nc1nccc(-c2cnn(C)c2)n1)c1cc2cc(Cl)ccc2[nH]c1=O [Compound I-91] | 100 to 1000 | 1000 to 10000 |
| COc1ncccc1-c1ccnc(N[C@@H](C)c2cc3cc(Cl)ccc3[nH]c2=O)n1 [Compound I-93] | 1000 to 10000 | > 10000 |

| Structure (SMILES) | IC50 [1] [nM] | IC50 [2] [nM] |
| --- | --- | --- |
| COc1cnccc1-c1ccnc(N[C@@H](C)c2cc3cc(Cl)ccc3[nH]c2=O)n1 [Compound I-97] | 1000 to 10000 | 1000 to 10000 |
| C[C@H](Nc1nccc(-c2cccc3c2OCC3)n1)c1cc2cc(Cl)ccc2[nH]c1=O [Compound I-98] | > 10000 | > 10000 |
| COc1ccncc1-c1ccnc(N[C@@H](C)c2cc3cc(Cl)ccc3[nH]c2=O)n1 [Compound I-99] | 100 to 1000 | 100 to 1000 |
| COCc1ccccc1-c1ccnc(N[C@@H](C)c2cc3cc(Cl)ccc3[nH]c2=O)n1 [Compound I-100] | 100 to 1000 | 1000 to 10000 |
| COc1ccccc1-c1ccnc(N[C@@H](C)c2cc3cc(Cl)ccc3[nH]c2=O)n1 [Compound I-102] | 1000 to 10000 | 1000 to 10000 |
| CC(C)[C@H]1COCCN1c1ccnc(N[C@@H](C)c2cc3cc(Cl)ccc3[nH]c2=O)n1 [Compound I-104, 6-chloro-3-((S)-1-(4-((S)-3-isopropylmorpholino)pyrimidin-2-ylamino)ethyl) quinolin-2(1H)-one] | 100 to 1000 | 1000 to 10000 |
| C[C@H](Nc1nccc([S+](C)[O-])n1)c1cc2cc(Cl)ccc2[nH]c1=O (stereo partly shown) [Compound I-111] | < 100 | 100 to 1000 |
| CC(C)NC(=O)c1ccnc(N[C@@H](C)c2cc3cc(Cl)ccc3[nH]c2=O)n1 [Compound I-117] | 100 to 1000 | 1000 to 10000 |
| CC(C)CS(=O)(=O)Cc1ccnc(N[C@@H](C)c2cc3cc(Cl)ccc3[nH]c2=O)n1 [Compound I-121, (S)-6-Chloro-3-(1-(4-(isobutylsulfonylmethyl)pyrimidin-2-ylamino)ethyl)quinolin-2(1H)-one] | 100 to 1000 | 100 to 1000 |
| C[C@H](Nc1nccc(CS(C)(=O)=O)n1)c1cc2cc(Cl)ccc2[nH]c1=O [Compound I-133] | 100 to 1000 | 1000 to 10000 |
| CC(c1ccnc(N[C@@H](C)c2cc3cc(Cl)ccc3[nH]c2=O)n1)S(C)(=O)=O (stereo partly drawn) [Compound I-135, 6-Chloro-3-((1S)-1-((4-(1-(methylsulfonyl)ethyl)pyrimidin-2-yl)amino)ethyl) quinolin-2(1H)-one] | 1000 to 10000 | > 10000 |
| C[C@H](Nc1nccc(C2(S(C)(=O)=O)CC2)n1)c1cc2cc(Cl)ccc2[nH]c1=O [Compound I-136, (S)-6-Chloro-3-(1-(4-(1-(methylsulfonyl)cyclopropyl)pyrimidin-2-ylamino)ethyl)quinolin-2(1H)-one] | 100 to 1000 |  |
| CC(=O)N(Cc1ccnc(N[C@@H](C)c2cc3cc(Cl)ccc3[nH]c2=O)n1)C1CC1 [Compound I-137, (S)—N-((2-((1-(6-chloro-2-oxo-1,2-dihydroquinolin-3-yl)ethyl)amino)pyrimidin-4-yl)methyl)-N-cyclopropylacetamide] | 1000 to 10000 |  |
| C[C@H](Nc1nccc(N)n1)c1cc2cc(Cl)ccc2[nH]c1=O [Compound I-139] | 1000 to 10000 |  |
| C[C@@H](Nc1nccc(N2CCCOC2=O)n1)c1cc2cc(Cl)ccc2[nH]c1=O [Compound I-140] | > 10000 |  |
| COc1cc2[nH]c(=O)c([C@@H](C)Nc3nccc(N4CCOC4=O)n3)cc2cc1Cl [Compound I-148] | > 10000 |  |
| COc1cc(OC)nc(NCc2cc3cc(Cl)ccc3[nH]c2=O)n1 [Compound I-163, 6-Chloro-3-(((4,6-dimethoxypyrimidin-2-yl)amino)methyl)quinolin-2(1H)-one] | 1000 to 10000 |  |
| CC(C)N(c1ccnc(NCc2cc3ccccc3[nH]c2=O)n1)S(C)(=O)=O [Compound I-164, N-isopropyl-N-(2-(((2-oxo-1,2-dihydroquinolin-3-yl)methyl)amino)pyrimidin-4-yl)methanesulfonamide] | > 10000 |  |
| CC(C)N(c1ccnc(NCc2cc3ccc(F)cc3[nH]c2=O)n1)S(C)(=O)=O [Compound I-165] | 1000 to 10000 |  |
| Cc1ccc2[nH]c(=O)c(CNc3nccc(N(C(C)C)S(C)(=O)=O)n3)cc2c1 [Compound I-166] | 1000 to 10000 |  |
| O=C1OCCN1c1ccnc(NC(CF)c2cc3cc(Cl)ccc3[nH]c2=O)n1 (stereo not shown) [Compound I-171] | > 10000 |  |
